Consider twelve compounds from US9783573B2, “IAP antagonists” (BRISTOL-MYERS SQUIBB COMPANY, priority 2012, dated 2017).

This assay concerns the target N-His-Tb-BIR3 (241-356, XIAP) (Homo sapiens (Human), UniProt P98170). Put plainly: biochemical. In kind it is binding.
The mark [1] stands for this setting: fluoresceinated modified SMAC peptide, fluorescence polarization, read-out: XIAP BIR3 FPA IC50.

Like-named read-outs stand apart in the source and are kept apart here.

For `CN[C@@H](C)C(=O)N[C@H](C(=O)N1Cc2cc(NC(=O)c3ccc4ccn(C(=O)NC5C[C@@H](C(=O)NC6CCCc7ccccc76)N(C(=O)[C@@H](NC(=O)[C@H](C)NC)C(C)(C)C)C5)c4c3)ccc2C[C@H]1C(=O)NC1CCCc2ccccc21)C(C)(C)C` (stereo partly drawn) [Example 53, N^6-((3S)-2-((S)-3,3-Dimethyl-2-((S)-2-(methylamino)propanamido)butanoyl)-3-((1,2,3,4-tetrahydronaphthalen-1-yl)carbamoyl)-1,2,3,4-tetrahydroisoquinolin-7-yl)-N^1-((5S)-1-((S)-3,3-dimethyl-2-((S)-2-(methylamino)propanamido)butanoyl)-5-((1,2,3,4-tetrahydronaphthalen-1-yl)carbamoyl)pyrrolidin-3-yl)-1H-indole-1,6-dicarboxamide], the IC50 under setting [1] is 140 nM.

For the compound `CN[C@@H](C)C(=O)N[C@H](C(=O)N1Cc2cc(OC(=O)c3ccc(C(=O)N[C@H]4C[C@@H](C(=O)N[C@@H]5CCCc6ccccc65)N(C(=O)[C@@H](NC(=O)[C@H](C)NC)C(C)(C)C)C4)cc3)ccc2C[C@H]1C(=O)N[C@@H]1CCCc2ccccc21)C(C)(C)C` [Example 46, (S)-2-((S)-3,3-Dimethyl-2-((S)-2-(methylamino)propanamido)butanoyl)-3-(((R)-1,2,3,4-tetrahydronaphthalen-1-yl)carbamoyl)-1,2,3,4-tetrahydroisoquinolin-7-yl 4-(((3S,5S)-1-((S)-3,3-dimethyl-2-((S)-2-(methylamino)propanamido)butanoyl)-5-(((R)-1,2,3,4-tetrahydronaphthalen-1-yl)carbamoyl)pyrrolidin-3-yl)carbamoyl)benzoate], the IC50 under setting [1] came out at 69 nM. Still for that read-out and setting: in the case of `CCN[C@@H](C)C(=O)N[C@H](C(=O)N1Cc2cc(NC(=O)c3ccc(C(=O)N[C@H]4C[C@@H](C(=O)N[C@@H]5CCCc6ccccc65)N(C(=O)[C@@H](NC(=O)[C@H](C)NC)C(C)(C)C)C4)cc3)ccc2C[C@H]1C(=O)N[C@@H]1CCCc2ccccc21)C(C)(C)C` [Example 34, N^1-((3S,5S)-1-((S)-3,3-dimethyl-2-((S)-2-(methylamino)propanamido)butanoyl)-5-(((R)-1,2,3,4-tetrahydronaphthalen-1-yl)carbamoyl)pyrrolidin-3-yl)-N^4-((S)-2-((S)-2-((S)-2-(ethylamino)propanamido)-3,3-dimethylbutanoyl)-3-(((R)-1,2,3,4-tetrahydronaphthalen-1-yl)carbamoyl)-1,2,3,4-tetrahydroisoquinolin-7-yl)terephthalamide] it was 150 nM; in that of `CN[C@@H](C)C(=O)N[C@H](C(=O)N1Cc2cc(N(Cc3ccc(C(=O)N[C@H]4C[C@@H](C(=O)N[C@@H]5CCCc6ccccc65)N(C(=O)[C@@H](NC(=O)[C@H](C)NC)C(C)(C)C)C4)cc3)C(C)=O)ccc2C[C@H]1C(=O)N[C@@H]1CCCc2ccccc21)C(C)(C)C` [Example 32, (S)-2-((S)-3,3-Dimethyl-2-((S)-2-(methylamino)propanamido)butanoyl)-7-(N-(4-(((3S,5S)-1-((S)-3,3-dimethyl-2-((S)-2-(methylamino)propanamido)butanoyl)-5-(((R)-1,2,3,4-tetrahydronaphthalen-1-yl)carbamoyl)pyrrolidin-3-yl)carbamoyl)benzyl)acetamido)-N—((R)-1,2,3,4-tetrahydronaphthalen-1-yl)-1,2,3,4-tetrahydroisoquinoline-3-carboxamide], 35 nM. Turning to `CN[C@@H](C)C(=O)N[C@H](C(=O)N1Cc2cc(NC(=O)c3ccc(C(=O)N[C@H]4C[C@@H](C(=O)N[C@@H]5CCCc6ccccc65)N(C(=O)[C@@H](NC(=O)[C@@H](NC)C(C)C)C(C)(C)C)C4)cc3)ccc2C[C@H]1C(=O)N[C@@H]1CCCc2ccccc21)C(C)(C)C` [Example 36, N^1-((S)-2-((S)-3,3-dimethyl-2-((S)-2-(methylamino)propanamido)butanoyl)-3-(((R)-1,2,3,4-tetrahydronaphthalen-1-yl)carbamoyl)-1,2,3,4-tetrahydroisoquinolin-7-yl)-N^4-((3S,5S)-1-((S)-3,3-dimethyl-2-((S)-3-methyl-2-(methylamino)butanamido)butanoyl)-5-(((R)-1,2,3,4-tetrahydronaphthalen-1-yl)carbamoyl)pyrrolidin-3-yl)terephthalamide], it took 190 nM to reach half-maximal inhibition (IC50). For `CN[C@@H](C)C(=O)N[C@H](C(=O)N1Cc2cc(NC(=O)CCC(=O)N[C@H]3C[C@@H](C(=O)N[C@@H]4CCCc5ccccc54)N(C(=O)[C@@H](NC(=O)[C@H](C)NC)C(C)(C)C)C3)ccc2C[C@H]1C(=O)N[C@@H]1CCCc2ccccc21)C(C)(C)C` [Example 1, N^1—((S)-2-((S)-3,3-Dimethyl-2-((S)-2-(methylamino)propanamido)butanoyl)-3-(((R)-1,2,3,4-tetrahydronaphthalen-1-yl)carbamoyl)-1,2,3,4-tetrahydroisoquinolin-7-yl)-N^4-((3S,5S)-1-((S)-3,3-dimethyl-2-((S)-2-(methylamino)propanamido)butanoyl)-5-(((R)-1,2,3,4-tetrahydronaphthalen-1-yl)carbamoyl)pyrrolidin-3-yl)succinamide], the half-inhibitory concentration (IC50) under setting [1] stood at 61 nM.

Take `CC[C@H](NC)C(=O)N[C@H](C(=O)N1Cc2cc(OCc3ccc(C(=O)N[C@H]4C[C@@H](C(=O)N[C@@H]5CCCc6ccccc65)N(C(=O)[C@@H](NC(=O)[C@H](C)NC)C(C)(C)C)C4)cc3)ccc2C[C@H]1C(=O)N[C@@H]1CCCc2ccccc21)C(C)(C)C` [Example 43]: under setting [1], the IC50 was found to be 130 nM. The same measure, in the same setting: with `CN[C@@H](C)C(=O)N[C@H](C(=O)N1Cc2cc(OC(=O)c3ccc(CO[C@H]4C[C@@H](C(=O)N[C@@H]5CCCc6ccccc65)N(C(=O)[C@@H](NC(=O)[C@H](C)NC)C(C)(C)C)C4)cc3)ccc2C[C@H]1C(=O)N[C@@H]1CCCc2ccccc21)C(C)(C)C` [Example 48, (S)-2-((S)-3,3-Dimethyl-2-((S)-2-(methylamino)propanamido)butanoyl)-3-(((R)-1,2,3,4-tetrahydronaphthalen-1-yl)carbamoyl)-1,2,3,4-tetrahydroisoquinolin-7-yl 4-((((3S,5S)-1-((S)-3,3-dimethyl-2-((S)-2-(methylamino)propanamido)butanoyl)-5-(((R)-1,2,3,4-tetrahydronaphthalen-1-yl)carbamoyl)pyrrolidin-3-yl)oxy)methyl)benzoate] the figure was 92 nM.

Take `CN[C@@H](C)C(=O)N[C@H](C(=O)N1Cc2cc(C(=O)Nc3ccc(C(=O)N[C@H]4C[C@@H](C(=O)N[C@@H]5CCCc6ccccc65)N(C(=O)[C@@H](NC(=O)[C@H](C)NC)C(C)(C)C)C4)cc3)ccc2C[C@H]1C(=O)N[C@@H]1CCCc2ccccc21)C(C)(C)C` [Example 27, (S)-2-((S)-3,3-Dimethyl-2-((S)-2-(methylamino)propanamido)butanoyl)-N^7-(4-(((3S,5S)-1-((S)-3,3-dimethyl-2-((S)-2-(methylamino)propanamido)butanoyl)-5-(((R)-1,2,3,4-tetrahydronaphthalen-1-yl)carbamoyl)pyrrolidin-3-yl)carbamoyl)phenyl)-N^3—((R)-1,2,3,4-tetrahydronaphthalen-1-yl)-1,2,3,4-tetrahydroisoquinoline-3,7-dicarboxamide]: the IC50 under setting [1] worked out at 73 nM. Same read-out and setting: in the case of `CN[C@@H](C)C(=O)N[C@H](C(=O)N1Cc2ccc(OCc3ccc(C(=O)N[C@H]4C[C@@H](C(=O)N[C@@H]5CCCc6ccccc65)N(C(=O)[C@@H](NC(=O)[C@H](C)NC)C(C)(C)C)C4)cc3)cc2C[C@H]1C(=O)N[C@@H]1CCCc2ccccc21)C(C)(C)C` [Example 41, (S)-2-((S)-3,3-Dimethyl-2-((S)-2-(methylamino)propanamido)butanoyl)-6-((4-(((3S,5S)-1-((S)-3,3-dimethyl-2-((S)-2-(methylamino)propanamido)butanoyl)-5-(((R)-1,2,3,4-tetrahydronaphthalen-1-yl)carbamoyl)pyrrolidin-3-yl)carbamoyl)benzyl)oxy)-N-((R)-1,2,3,4-tetrahydronaphthalen-1-yl)-1,2,3,4-tetrahydroisoquinoline-3-carboxamide] it was 65 nM; in that of `CN[C@@H](C)C(=O)N[C@H](C(=O)N1Cc2cc(N(C(=O)C3(C(N)=O)CC3)[C@H]3C[C@@H](C(=O)N[C@@H]4CCCc5ccccc54)N(C(=O)[C@@H](NC(=O)[C@H](C)NC)C(C)(C)C)C3)ccc2C[C@H]1C(=O)N[C@@H]1CCCc2ccccc21)C(C)(C)C` [Example 4, N-((S)-2-((S)-3,3-Dimethyl-2-((S)-2-(methylamino)propanamido)butanoyl)-3-(((R)-1,2,3,4-tetrahydronaphthalen-1-yl)carbamoyl)-1,2,3,4-tetrahydroisoquinolin-7-yl)-N-((3S,5S)-1-((S)-3,3-dimethyl-2-((S)-2-(methylamino)propanamido)butanoyl)-5-(((R)-1,2,3,4-tetrahydronaphthalen-1-yl)carbamoyl)pyrrolidin-3-yl)cyclopropane-1,1-dicarboxamide], 53 nM. Still for that read-out and setting: with `CN[C@@H](C)C(=O)N[C@H](C(=O)N1Cc2cc(NCc3ccc(C(=O)N[C@H]4C[C@@H](C(=O)N[C@@H]5CCCc6ccccc65)N(C(=O)[C@@H](NC(=O)[C@H](C)NC)C(C)(C)C)C4)cc3Cl)ccc2C[C@H]1C(=O)N[C@@H]1CCCc2ccccc21)C(C)(C)C` [Example 33, (S)-7-((2-Chloro-4-(((3S,5S)-1-((S)-3,3-dimethyl-2-((S)-2-(methylamino)propanamido)butanoyl)-5-(((R)-1,2,3,4-tetrahydronaphthalen-1-yl)carbamoyl)pyrrolidin-3-yl)carbamoyl)benzyl)amino)-2-((S)-3,3-dimethyl-2-((S)-2-(methylamino)propanamido)butanoyl)-N—((R)-1,2,3,4-tetrahydronaphthalen-1-yl)-1,2,3,4-tetrahydroisoquinoline-3-carboxamide] the figure was 66 nM.
